# Measurements from ChEMBL document CHEMBL3885881, “DrugMatrix”.
# Organism: Rattus norvegicus
# Experiment: DrugMatrix - Regimen: Daily Repeat
# Type: toxicity, organism-based, Sprague-Dawley
# Design: regimen Daily Repeat, gender Male, age 6-8 weeks
# Conditions: in vivo, po, 0 mg/kg, route oral GAVAGE, dose level Control, vehicle .5 % CMC; for ABSOLUTE BASOPHIL / ABSOLUTE EOSINOPHIL / ABSOLUTE LYMPHOCYTE / ABSOLUTE MONOCYTE / ABSOLUTE SEGMENTED NEUTROPHIL / BASOPHIL / EOSINOPHIL / ERYTHROCYTE COUNT / HEMATOCRIT / HEMOGLOBIN / LEUKOCYTE COUNT / LYMPHOCYTE / MEAN CORPUSCULAR HEMOGLOBIN / MEAN CORPUSCULAR HEMOGLOBIN CONCENTRATION / MEAN CORPUSCULAR VOLUME / MONOCYTE / NEUTROPHIL / PLATELET COUNT: tissue Blood; for ALANINE AMINOTRANSFERASE / ALBUMIN / ALKALINE PHOSPHATASE / ASPARTATE AMINOTRANSFERASE / BLOOD UREA NITROGEN / CHLORIDE / CHOLESTEROL / CREATINE PHOSPHOKINASE / CREATININE / GLUCOSE / LACTATE DEHYDROGENASE / LIPASE / PHOSPHORUS / POTASSIUM / SODIUM / TOTAL BILIRUBIN / TOTAL PROTEIN / URIC ACID: tissue Plasma
compound,measurement,setting,value
O=c1cc(-c2ccccc2)oc2c1ccc1ccccc12 [ALPHA-NAPHTHOFLAVONE],ABSOLUTE BASOPHIL,"120 h, time 5 day",92 cells/µL
same,ABSOLUTE EOSINOPHIL,"120 h, time 5 day",52 cells/µL
same,ABSOLUTE LYMPHOCYTE,"120 h, time 5 day",6560 cells/µL
same,ABSOLUTE MONOCYTE,"120 h, time 5 day",160 cells/µL
same,ABSOLUTE SEGMENTED NEUTROPHIL,"120 h, time 5 day",1130 cells/µL
same,BASOPHIL,"120 h, time 5 day",1.14%
same,EOSINOPHIL,"120 h, time 5 day",0.68%
same,ERYTHROCYTE COUNT,"120 h, time 5 day",7.51 x10E6/uL
same,HEMATOCRIT,"120 h, time 5 day",46.04%
same,HEMOGLOBIN,"120 h, time 5 day",15.62 G/DL
same,LEUKOCYTE COUNT,"120 h, time 5 day",8.03 x10E3/uL
same,LYMPHOCYTE,"120 h, time 5 day",81.54%
same,MEAN CORPUSCULAR HEMOGLOBIN,"120 h, time 5 day",20.84 pg
same,MEAN CORPUSCULAR HEMOGLOBIN CONCENTRATION,"120 h, time 5 day",33.94 G/DL
same,MEAN CORPUSCULAR VOLUME,"120 h, time 5 day",61.42 fL
same,MONOCYTE,"120 h, time 5 day",2%
same,NEUTROPHIL,"120 h, time 5 day",14.24%
same,PLATELET COUNT,"120 h, time 5 day",1427.2 x10E3/uL
same,ALANINE AMINOTRANSFERASE,"120 h, time 5 day",35.6 u/L
same,ALBUMIN,"120 h, time 5 day",3.64 G/DL
same,ALKALINE PHOSPHATASE,"120 h, time 5 day",233 u/L
same,ASPARTATE AMINOTRANSFERASE,"120 h, time 5 day",81 u/L
same,BLOOD UREA NITROGEN,"120 h, time 5 day",12 mg/dL
same,CHLORIDE,"120 h, time 5 day",109.4 MEQ/L
same,CHOLESTEROL,"120 h, time 5 day",47.6 mg/dL
same,CREATINE PHOSPHOKINASE,"120 h, time 5 day",183.2 u/L
same,CREATININE,"120 h, time 5 day",0.4 mg/dL
same,GLUCOSE,"120 h, time 5 day",134.6 mg/dL
same,LACTATE DEHYDROGENASE,"120 h, time 5 day",89.4 u/L
same,LIPASE,"120 h, time 5 day",17.2 u/L
same,PHOSPHORUS,"120 h, time 5 day",13.02 mg/dL
same,POTASSIUM,"120 h, time 5 day",7 MEQ/L
same,SODIUM,"120 h, time 5 day",149.6 MEQ/L
same,TOTAL BILIRUBIN,"120 h, time 5 day",0.18 mg/dL
same,TOTAL PROTEIN,"120 h, time 5 day",6.06 G/DL
same,URIC ACID,"120 h, time 5 day",1.04 mg/dL
same,ABSOLUTE BASOPHIL,"2184 h, time 91 day",130 cells/µL
same,ABSOLUTE EOSINOPHIL,"2184 h, time 91 day",70 cells/µL
same,ABSOLUTE LYMPHOCYTE,"2184 h, time 91 day",8670 cells/µL
same,ABSOLUTE MONOCYTE,"2184 h, time 91 day",160 cells/µL
same,ABSOLUTE SEGMENTED NEUTROPHIL,"2184 h, time 91 day",1530 cells/µL
same,BASOPHIL,"2184 h, time 91 day",1.13%
same,EOSINOPHIL,"2184 h, time 91 day",0.66%
same,ERYTHROCYTE COUNT,"2184 h, time 91 day",9.13 x10E6/uL
same,HEMATOCRIT,"2184 h, time 91 day",48.47%
same,HEMOGLOBIN,"2184 h, time 91 day",16.56 G/DL
same,LEUKOCYTE COUNT,"2184 h, time 91 day",10.5 x10E3/uL
same,LYMPHOCYTE,"2184 h, time 91 day",81.63%
same,MEAN CORPUSCULAR HEMOGLOBIN,"2184 h, time 91 day",18.16 pg
same,MEAN CORPUSCULAR HEMOGLOBIN CONCENTRATION,"2184 h, time 91 day",34.14 G/DL
same,MEAN CORPUSCULAR VOLUME,"2184 h, time 91 day",53.14 fL
same,MONOCYTE,"2184 h, time 91 day",1.53%
same,NEUTROPHIL,"2184 h, time 91 day",14.71%
same,PLATELET COUNT,"2184 h, time 91 day",1280.22 x10E3/uL
same,ALANINE AMINOTRANSFERASE,"2184 h, time 91 day",28.89 u/L
same,ALBUMIN,"2184 h, time 91 day",3.69 G/DL
same,ALKALINE PHOSPHATASE,"2184 h, time 91 day",101.11 u/L
same,ASPARTATE AMINOTRANSFERASE,"2184 h, time 91 day",70.67 u/L
same,BLOOD UREA NITROGEN,"2184 h, time 91 day",16.78 mg/dL
same,CHLORIDE,"2184 h, time 91 day",104.56 MEQ/L
same,CHOLESTEROL,"2184 h, time 91 day",58.78 mg/dL
same,CREATINE PHOSPHOKINASE,"2184 h, time 91 day",91.22 u/L
same,CREATININE,"2184 h, time 91 day",0.61 mg/dL
same,GLUCOSE,"2184 h, time 91 day",142.33 mg/dL
same,LACTATE DEHYDROGENASE,"2184 h, time 91 day",81.67 u/L
same,LIPASE,"2184 h, time 91 day",13 u/L
same,PHOSPHORUS,"2184 h, time 91 day",7.54 mg/dL
same,POTASSIUM,"2184 h, time 91 day",6.27 MEQ/L
same,SODIUM,"2184 h, time 91 day",149.89 MEQ/L
same,TOTAL BILIRUBIN,"2184 h, time 91 day",0.19 mg/dL
same,TOTAL PROTEIN,"2184 h, time 91 day",7.12 G/DL
same,URIC ACID,"2184 h, time 91 day",0.97 mg/dL
same,ABSOLUTE BASOPHIL,"[…], time 28 day",150 cells/µL
same,ABSOLUTE EOSINOPHIL,"[…], time 28 day",54 cells/µL
same,ABSOLUTE LYMPHOCYTE,"[…], time 28 day",8890 cells/µL
same,ABSOLUTE MONOCYTE,"[…], time 28 day",190 cells/µL
same,ABSOLUTE SEGMENTED NEUTROPHIL,"[…], time 28 day",2250 cells/µL
same,BASOPHIL,"[…], time 28 day",1.26%
same,EOSINOPHIL,"[…], time 28 day",0.46%
same,ERYTHROCYTE COUNT,"[…], time 28 day",8.34 x10E6/uL
same,HEMATOCRIT,"[…], time 28 day",48.66%
same,HEMOGLOBIN,"[…], time 28 day",16.04 G/DL
same,LEUKOCYTE COUNT,"[…], time 28 day",11.58 x10E3/uL
same,LYMPHOCYTE,"[…], time 28 day",76.74%
same,MEAN CORPUSCULAR HEMOGLOBIN,"[…], time 28 day",19.2 pg
same,MEAN CORPUSCULAR HEMOGLOBIN CONCENTRATION,"[…], time 28 day",32.92 G/DL
same,MEAN CORPUSCULAR VOLUME,"[…], time 28 day",58.32 fL
same,MONOCYTE,"[…], time 28 day",1.76%
same,NEUTROPHIL,"[…], time 28 day",19.44%
same,PLATELET COUNT,"[…], time 28 day",1282.6 x10E3/uL
same,ALANINE AMINOTRANSFERASE,"[…], time 28 day",27 u/L
same,ALBUMIN,"[…], time 28 day",3.68 G/DL
same,ALKALINE PHOSPHATASE,"[…], time 28 day",146.2 u/L
same,ASPARTATE AMINOTRANSFERASE,"[…], time 28 day",66.6 u/L
same,BLOOD UREA NITROGEN,"[…], time 28 day",12.4 mg/dL
same,CHLORIDE,"[…], time 28 day",104.6 MEQ/L
same,CHOLESTEROL,"[…], time 28 day",59.6 mg/dL
same,CREATINE PHOSPHOKINASE,"[…], time 28 day",121.8 u/L
same,CREATININE,"[…], time 28 day",0.6 mg/dL
same,GLUCOSE,"[…], time 28 day",143 mg/dL
same,LACTATE DEHYDROGENASE,"[…], time 28 day",87.8 u/L
same,LIPASE,"[…], time 28 day",17.4 u/L
same,PHOSPHORUS,"[…], time 28 day",8.68 mg/dL
same,POTASSIUM,"[…], time 28 day",6.02 MEQ/L
same,SODIUM,"[…], time 28 day",152.8 MEQ/L
same,TOTAL BILIRUBIN,"[…], time 28 day",0.26 mg/dL
same,TOTAL PROTEIN,"[…], time 28 day",6.92 G/DL
same,URIC ACID,"[…], time 28 day",0.52 mg/dL
